Data: patent publication US20070244060A1, “Therapeutic Agent for Autoimmune Disease” (priority 2003, published 2007)

What was measured:
Format in all cases: cell-based, human
synoviocytes = experiment: Apoptosis induction in synoviocytes, nuclear condensation by Hoechst 33258 DNA staining; details: FIG. 3B
Protocol: Then, synoviocytes were seeded at 2500 each to an eight-well Lab-Tek Chamber from the Nunc Company and were incubated for 24 hours in an incubator under 5% CO2 at 37° C. 67 nM siRNA was thereafter introduced into the synoviocytes using TransIT-TKO transfection reagent from the Miru Bio Corporation. After additional incubation for 48 hours in an incubator under 5% CO2 at 37° C., 50 μg/mL tunicamycin was added, followed by incubation for 48 hours under the same conditions. The cells were then fixed and nuclear condensation was confirmed by DNA staining with Hoechst 33258.

rheumatoid synoviocytes = experiment: WST-8 assay of proliferation activity of rheumatoid synoviocytes after siRNA treatment; details: 96 hours after siRNA treatment; anti-GFP siRNA negative control = 100; FIG. 3A
Protocol: The experiments were carried out as follows. Rheumatoid synoviocytes were seeded at 160 each into a 96-well, flat-bottom plate from the Falcon Co. After 24 hours, treatment was carried with anti-Synoviolin siRNA or anti-GFP siRNA, and the proliferation activity was investigated after an additional 96 hours. The GFP was used in this case as a negative control. The degree of cell proliferation was measured using a WST-8 assay from Dojindo Laboratories.

[1] = tested on: rheumatoid synoviocytes (RA); experiment: ER stress-inducible apoptosis, ssDNA Apoptosis ELISA, rheumatoid synoviocytes; details: RA synoviocytes (5 cases), 24 hours, FIG. 5
Protocol: (§1) The experiments were carried out as follows. […] Endoplasmic reticulum stress-inducible apoptosis was induced using tunicamycin at concentrations of 10, 30, and 100 μg/mL. Apoptosis was quantitated using the ssDNA Apoptosis ELISA kit from Chemicon International, Inc.

[2] = tested on: osteoarthritis synoviocytes (OA); experiment: ER stress-inducible apoptosis, ssDNA Apoptosis ELISA, osteoarthritis synoviocytes; details: OA synoviocytes (5 cases), 24 hours, FIG. 5
Protocol: as §1

## anti-Synoviolin siRNA: small interfering RNA against the Synoviolin gene; sense CGUUCCUGGUACGCCGUCAUU (SEQ ID NO: 1), antisense UGACGGCGUACCAGGAACGUU (SEQ ID NO: 2) (listed as RNA, chemistry not given here)
synoviocytes; 67 nM siRNA 48 hours, then 50 μg/mL tunicamycin 48 hours
  apoptosis induction in synoviocytes, co-use of siRNA with tunicamycin: increased
Rheumatoid synoviocytes
  proliferation activity of rheumatoid synoviocytes (GFP=100): about 60%

## tunicamycin
[1]; tunicamycin 10 μg/mL
  apoptosis (ssDNA Apoptosis ELISA): 0.73±0.30
[1]; tunicamycin 30 μg/mL
  apoptosis (ssDNA Apoptosis ELISA): 0.84±0.35
[1]; tunicamycin 100 μg/mL
  apoptosis (ssDNA Apoptosis ELISA): 0.81±0.28
synoviocytes; 50 μg/mL tunicamycin, 48 hours
  apoptosis induction in synoviocytes: caused apoptosis induction
[2]; tunicamycin 10 μg/mL
  apoptosis (ssDNA Apoptosis ELISA): 2.18±1.19
[2]; tunicamycin 30 μg/mL
  apoptosis (ssDNA Apoptosis ELISA): 2.76±1.84
[2]; tunicamycin 100 μg/mL
  apoptosis (ssDNA Apoptosis ELISA): 3.65±2.53
